CCCNCCOc1ccc(NC(=O)c2n[nH]c3c2C(=O)CCC3)cn1 [Example 4, 4-Oxo-4,5,6,7-tetrahydro-1H-indazole-3-carboxylic acid [6-(2-propylamino-ethoxy)-pyridin-3-yl]-amide]
melting point: 120 °C

Reference: US6656941B2, “Aryl substituted tetrahydroindazoles” (Neurogen Corporation, priority 2000, dated 2003)
